Key:
[1] = system: Arabidopsis thaliana; assay: Herbicidal performance, leaf spray under air and sunlight; type: in vivo; details: various concentrations (1, 2, 4, 8 times PQ equivalent), air and sunlight
Source text: (§1) As is well-known, Bermuda grass, Arabidopsis thaliana, and Acorus calamus are naturalized green weeds in most parts of the world and are also invasive grasses. Photosynthesis occurs throughout their entire leaves and bundles. […] Therefore, Bermuda grass, Acorus calamus, and Arabidopsis thaliana were selected as plant models to evaluate the herbicidal performance of the compounds in the present invention.
(§2) Under air and sunlight, the compound of formula 2 of the present invention was sprayed on the leaf surface at concentrations of 1, 2, 4, and 8 times the PQ equivalent, respectively. Paraquat herbicide was used as the positive control, and physiological saline was used as the blank control group. The diameter of the observation range was 8 cm.

[2] = system: Acorus calamus; assay: as above; type: in vivo; details: various concentrations (1, 2, 4, 8 times PQ equivalent), air and sunlight
Source text: as §1, §2

[3] = system: Bermuda grass; assay: as above; type: in vivo; details: various concentrations (1, 2, 4, 8 times PQ equivalent), air and sunlight
Source text: as §1, §2

[4] = system: mice; assay: Survival rate and body weight of mice after intraperitoneal injection; type: in vivo; details: 0.19 mmol/kg intraperitoneal
[5] = system: A549 cells; assay: Direct cytotoxicity, cell viability and IC50; type: cell-based
Source text: (§3) PQ is rapidly absorbed and distributed to the lungs, kidneys, liver, and muscles after entering the human body. Death caused by ingestion of PQ is usually due to multiple organ failure, such as pulmonary edema, kidney and liver failure. Therefore, lung cells (A549 cells), kidney cells (COS-7), and liver cells (Hep G2) were selected to evaluate the direct cytotoxicity of diene diamine.

[6] = system: COS-7 cells; assay: Direct cytotoxicity, cell viability and IC50; type: cell-based
Source text: as §3

[7] = system: Hep G2 cells; assay: Direct cytotoxicity, cell viability and IC50; type: cell-based
Source text: as §3

[8] = system: mice; assay: Transmission electron microscopy of main organs 48 hours after intraperitoneal injection in mice; type: in vivo; details: 0.19 mmol/kg intraperitoneal
Description: 48 hours after intraperitoneal injection of 0.19 mmol/kg of paraquat or the compound of formula 2, transmission electron microscopy samples of the lung, liver, kidney, and heart were collected. The black arrow indicated mitochondrial damage, and the electron microscopy scale of the heart group was 200 nm, and the electron microscope scale of other groups was 100 nm.

[9] = system: humans; details: background data; cited from earlier work
[10] = system: A549 cells; assay: Intracellular ROS levels, DCF fluorescence, flow cytometry; type: cell-based; details: 100 μM, 18 hours
Description: (§4) The above three types of cells were exposed to 100 μM PQ (100) and 100 μM of the compound of formula 2 and incubated for 18 hours, and the intracellular reactive oxygen species (ROS) levels were quantified using flow cytometry. Intracellular ROS levels were measured using DCF fluorescence (n=6).

[11] = system: COS-7 cells; assay: as above; type: cell-based; details: 100 μM, 18 hours
Description: as §4

[12] = system: Hep G2 cells; assay: as above; type: cell-based; details: 100 μM, 18 hours
Description: as §4

[13] = system: mice; assay: Damage of major organs (histopathology) 48 hours after intraperitoneal injection in mice; type: in vivo; details: 48 hours after intraperitoneal administration
Source text: The data is expressed as mean±standard error, with 6 mice per group (n=6), and P<0.05 indicates statistically significant differences. Scale bar: 50 μm.

[14] = system: mice; assay: Acute toxicity test and LD50 determination in mice, intraperitoneal injection; type: in vivo; details: 8 mice
Description: In order to evaluate the safety of compound 2 of the present invention in vivo, acute toxicity tests were conducted on mice. Firstly, the LD50 of diene diamine in mice was measured. […] The toxicity of diene diamine in mice is low and the safety is high.

[15] = system: mice; assay: PQ-induced lethality in mice, single intraperitoneal injection, dose and timing finding; type: in vivo
Description: Firstly, the optimal dose and timing for PQ-induced lethality in mice were determined through single intraperitoneal injection at doses of 20, 30, 40, 50, and 60 (mg/kg). […] Therefore, 50 mg/kg was chosen as the optimal dose. The mouse tissue samples were collected 48 hours after PQ administration.

[16] = system: mice; assay: Organ indices and biochemical indicators 48 hours after intraperitoneal injection in mice; type: in vivo
Source text: P<0.05 is considered statistically significant, with 10 mice per group (n=10).
However, no significant differences in these biochemical indicators were detected after intraperitoneal injection of the compound of formula 2 diene diamine at the same molar concentration.

[17] = 50 mg/kg paraquat or same dose, 48 hour

## C[n+]1ccc(-c2cc[n+](C)cc2)cc1.[Cl-].[Cl-] [PQ, 1,1-dimethyl-4,4′-bipyridinium dichloride, reference compound]
[1]
  state of leaves 24 hours after spraying: began to wither
[2]
  state of leaves 24 hours after spraying: began to wither
[3]
  state of leaves 24 hours after spraying: began to wither
[4]
  weight of the mice: continued to decrease
[4]; within 112 hours after administration
  mice died: 100%
[5]; A549, co-culture 24 hours, concentration gradient
  cell viability: direct cytotoxic effects
[5]; A549 cells, 24 hours
  IC50: 322 µM
[6]; COS-7, co-culture 24 hours, concentration gradient
  cell viability: direct cytotoxic effects
[6]; Cos-7 cells, 24 hours
  IC50: 114 µM
[7]; Hep G2, co-culture 24 hours, concentration gradient
  cell viability: direct cytotoxic effects
[7]; hep G2 cells, 24 hours
  IC50: 131 µM
[8]
  mitochondrial structure in lung, liver, kidney, and heart tissues (transmission electron microscopy): mitochondrial damage such as swelling, vacuolization, blurring, or fragmentation
[9]
  mortality rate of toxic ingestion incidents: 50-90%
[10]
  intracellular ROS production: significant increase in ROS production
[11]
  intracellular ROS production: significant increase in ROS production
[12]
  intracellular ROS production: significant increase in ROS production
[13]
  pathological damage of major tissues (lung, liver, kidney, heart): multiple organic damages accompanied by significant inflammation
  tissue damage scores of the main organs: significantly higher than those in the control group and the diene diamine group
[14]; 300 mg/kg intraperitoneal
  Mortality, n (%) Day 1: 0 (0) n (%)
  Mortality, n (%) Day 7: 0 (0) n (%)
[14]; 600 mg/kg intraperitoneal
  Mortality, n (%) Day 1: 0 (0) n (%)
  Mortality, n (%) Day 7: 0 (0) n (%)
[14]; 900 mg/kg intraperitoneal
  Mortality, n (%) Day 1: 3 (37.5) n (%)
  Mortality, n (%) Day 7: 3 (37.5) n (%)
[14]; 1050 mg/kg intraperitoneal
  Mortality, n (%) Day 1: 3 (37.5) n (%)
  Mortality, n (%) Day 7: 3 (37.5) n (%)
[14]; 1200 mg/kg intraperitoneal
  Mortality, n (%) Day 1: 8 (100) n (%)
  Mortality, n (%) Day 7: 8 (100) n (%)
[15]; 24 hours after PQ administration
  lung injury score: significant increase
[15]; compared to other time points
  time point of the highest lung injury score: 48 h
[15]; single intraperitoneal injection, 20 and 30 mg/kg, all mice
  survival time: over 168 hours
[15]; single intraperitoneal injection, 50 or 60 mg/kg
  body weight on the first day: significant weight loss
[16]; [17]
  levels of SOD and CAT in lung tissue: significantly decreased
  serum levels of TNF-α, IL-B, IL-6, AST, ALT, SCr, BUN, and uric acid: significantly increased
[16]; 50 mg/kg paraquat or same molar dose, 48 hours
  lung, liver, and kidney indices compared with the control group: significantly increased
[16]; 50 mg/kg paraquat or same molar dose, 48 hours, among the three groups
  cardiac index: no statistical difference

From patent US20260215427A1, “NON-BIPYRIDYL SALT HERBICIDE, PREPARATION METHOD THEREFOR, AND USE THEREOF” (priority 2022, published 2026)
